Where two headings read alike, the source gives them in different places.
Biological target: human CB1 receptor (Homo sapiens, UniProt P21554)
Assay: Human CB1 receptor binding, [3H] CP-55,940 displacement on HEK cell membranes
Set-up: expressed in transfected cells; host or cells: HEK cells, doxycycline-induced; membrane preparation
Procedure: The Human CB1 receptor binding affinity and other biological activities of the compounds of this invention are determined by the following procedures. Membrane preparation: Human Embryonic Kidney (HEK) Cells expressing the human CB1 receptor under transcriptional regulation of a tetracycline inducible promoter were grown in Dulbecco's Modified Essential Medium with sodium pyruvate (Invitrogen, Carlsbad, Calif.) containing 10% tetracycline free fetal bovine serum (Clonetech, Mountain View, Calif.) 100 μg/ml hygromycin (Calbiochem, San Diego, Calif.), 5 μg/ml blasticidin (Invitrogen). CB1 receptor expression was induced by addition of 1 μg/ml doxycycline (Calbiochem) and incubation for an additional 24 hours. Cells were released from flasks using Cell Dissociation Buffer (Invitrogen). Cells were pelleted by centrifugation at 500×G for 5 minutes. Membranes were prepared by resuspending cells in ice cold TEE Buffer (25 mM Tris pH 7.4, 5 mM EDTA, 5 mM EGTA, Complete Protease Inhibitor (Roche, Basel, Switzerland)). Cells were lysed with 12 strokes of a dounce homogenizer. Unlysed cells were pelleted by centrifugation at 500×G for 5 minutes. Membranes were pelleted by centrifugation at 25,000×G for 30 minutes. Membranes were resuspended in TEE, dounced 12 strokes, and pelleted a second time at 25,000×G for 30 minutes. Membrane pellet was resuspended in 50 mM Tris pH 7.4, 100 mM NaCl, 3 mM MgCl2, 0.2 mM EGTA, Complete Protease Inhibitor (Roche). Protein concentration was determined using the Micro-BCA Protein Assay Kit (Pierce, Rockford, Ill.) using BSA as a standard. Membranes were quick frozen and stored at −80 degrees Celsius until use.
Binding experiments: 50 μl of test compound was incubated with 50 μl of [^3H] CP-55,940 (Perkin Elmer, Boston, Mass.) (final concentration=[…]) and 150 μl of membrane homogenate (1 μg/well) in polypropylene 96-well plates (Corning, Acton, Mass.). Final reaction conditions were 50 mM Tris pH 7.4, 100 mM NaCl, 3 mM MgCl2, 0.2 mM EGTA, 0.04% BSA. Nonspecific binding was determined by incubation with 50 μM WIN-55, 212-2 (Tocris, Ellisville, Mo.). After incubation at room temperature for 60 minutes reactions were harvested by vacuum filtration through Unifilter GF/B-96 filters (Perkin Elmer) that had been presoaked in assay buffer containing 0.5% BSA (Sigma, St. Louis, Mo.) using a FilterMate Plate Harvester (Perkin Elmer). Filters were rinsed 4 times with 50 mM Tris pH 7.4, 0.025% Tween-20 and dried at 50 degrees Celsius for at least 30 minutes. 40 μl of Microscint-20 (Perkin Elmer) was added per well, and plates were counted using a Top-Count Microplate Scintillation Counter (Perkin Elmer). Binding data were analyzed and EC50 and K, values calculated using Graph Pad Prism 4.0 Software.

Sequence of human CB1 receptor (P21554 whole entry): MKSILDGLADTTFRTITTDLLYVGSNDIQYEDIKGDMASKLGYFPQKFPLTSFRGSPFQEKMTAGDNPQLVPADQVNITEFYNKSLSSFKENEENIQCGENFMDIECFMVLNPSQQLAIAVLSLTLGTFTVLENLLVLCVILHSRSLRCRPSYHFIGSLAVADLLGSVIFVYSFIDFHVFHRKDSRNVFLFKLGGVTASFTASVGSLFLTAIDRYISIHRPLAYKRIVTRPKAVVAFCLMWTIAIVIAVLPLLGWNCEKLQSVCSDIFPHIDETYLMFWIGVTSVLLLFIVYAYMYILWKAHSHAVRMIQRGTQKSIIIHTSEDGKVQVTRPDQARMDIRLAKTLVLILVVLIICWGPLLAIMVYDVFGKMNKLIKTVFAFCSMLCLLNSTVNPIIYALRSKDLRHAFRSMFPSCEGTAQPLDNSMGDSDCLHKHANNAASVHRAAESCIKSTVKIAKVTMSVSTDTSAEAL

Structure (SMILES) | Ki (CB1 Ki) [nM] | Ki (read-out: CB1 Ki) [nM]
CC(C)(C)[C@H](NC(=O)c1nn(Cc2ccc(C#N)cc2)c2cc(F)ccc12)C(=O)NCC1CCC(=O)N1 (stereo partly shown) [Example 403] | > 400 | –
CC(C)NC(=O)[C@@H](NC(=O)c1nn(Cc2ccc(C#N)cc2)c2ccccc12)C(C)(C)C [Example 405] | 48.1 | –
CC(C)(C)[C@H](NC(=O)c1nn(Cc2ccc(C#N)cc2)c2ccccc12)C(=O)NC1CCC1 [Example 406] | 89.7 | –
CC(C)(C)[C@H](NC(=O)c1nn(Cc2ccc(C#N)cc2)c2ccccc12)C(=O)NCC1CC1 [Example 407] | 36.2 | –
CN1CC(CNC(=O)[C@@H](NC(=O)c2nn(Cc3ccc(C#N)cc3)c3ccccc23)C(C)(C)C)CC1=O (stereo partly shown) [Example 408] | – | > 400
CN1CC(CNC(=O)[C@@H](NC(=O)c2nn(Cc3ccc(C#N)cc3)c3c(F)cccc23)C(C)(C)C)CC1=O (stereo partly shown) [Example 409] | – | 73
CN1CC(CNC(=O)[C@@H](NC(=O)c2nn(Cc3ccc(C#N)cc3)c3cc(F)ccc23)C(C)(C)C)CC1=O (stereo partly shown) [Example 410] | – | 104
CC(C)(C)[C@H](NC(=O)c1nn(Cc2ccc(C#N)cc2)c2ccccc12)C(=O)NO [Example 412] | > 400 | –
CC(C)(C)[C@H](NC(=O)c1nn(Cc2ccc(F)cc2)c2ccccc12)C(=O)NCc1nnc2n1CCC2 [Example 419] | – | 110
CC(C)(C)[C@H](NC(=O)c1nn(Cc2ccc(F)cc2)c2c(Cl)cccc12)C(=O)NCc1ccc(C(=O)O)cc1 [Example 426] | – | 90
CC(C)(C)[C@H](NC(=O)c1nn(Cc2ccc(F)cc2)c2ccc(Cl)cc12)C(=O)NCCO [Example 428] | 0.89 | –
CC(C)(C)[C@H](NC(=O)c1nn(Cc2ccc(F)cc2)c2ccc(Cl)cc12)C(N)=O [Example 429] | 0.44 | –
CC(C)(C)[C@H](NC(=O)c1nn(Cc2ccc(F)cc2)c2ccc(Cl)cc12)C(=O)NCC(N)=O [Example 430] | 18.2 | –
CC(C)(C)[C@H](NC(=O)c1nn(Cc2ccc(F)cc2)c2ccc(Cl)cc12)C(=O)NC[C@H](O)CO [Example 431] | 13.6 | –
CC(C)(C)[C@H](NC(=O)c1nn(Cc2ccc(F)cc2)c2ccc(Cl)cc12)C(=O)NCCS(C)(=O)=O [Example 433] | 35.5 | –
CC(C)(C)[C@H](NC(=O)c1nn(Cc2ccc(F)cc2)c2ccc(Cl)cc12)C(=O)NC[C@@H](O)CO [Example 434] | 55.1 | –
CC(C)(C)[C@H](NC(=O)c1nn(Cc2ccc(F)cc2)c2ccc(Cl)cc12)C(=O)NC(CO)CO [Example 435] | 6.5 | –
CC(C)(C)[C@H](NC(=O)c1nn(Cc2ccc(F)cc2)c2ccc(Cl)cc12)C(=O)NC1CC1 [Example 436] | 1.13 | –
CC(C)NC(=O)[C@@H](NC(=O)c1nn(Cc2ccc(F)cc2)c2ccc(Cl)cc12)C(C)(C)C [Example 437] | 2.79 | –
CC(C)(C)[C@H](NC(=O)c1nn(Cc2ccc(F)cc2)c2ccc(Cl)cc12)C(=O)NCC1CC1 [Example 439] | 3.26 | –
CC(C)(C)[C@H](NC(=O)c1nn(Cc2ccc(C#N)cc2)c2ccc(Cl)cc12)C(N)=O [Example 440] | 104 | –
CC(C)(C)[C@H](NC(=O)c1nn(Cc2ccc(C#N)cc2)c2ccc(Cl)cc12)C(=O)NC[C@H](O)CO [Example 441] | > 400 | –
CC(C)(C)[C@H](NC(=O)c1nn(Cc2ccc(C#N)cc2)c2ccc(Cl)cc12)C(=O)NCCS(C)(=O)=O [Example 442] | > 400 | –
CC(C)(C)[C@H](NC(=O)c1nn(Cc2ccc(C#N)cc2)c2ccc(Cl)cc12)C(=O)NCC(N)=O [Example 443] | > 400 | –
CC(C)(C)[C@H](NC(=O)c1nn(Cc2ccc(C#N)cc2)c2ccc(Cl)cc12)C(=O)NCCS(N)(=O)=O [Example 444] | > 400 | –
CC(C)(C)[C@H](NC(=O)c1nn(Cc2ccc(C#N)cc2)c2ccc(Cl)cc12)C(=O)NC[C@@H](O)CO [Example 445] | > 400 | –
CC(C)(C)[C@H](NC(=O)c1nn(Cc2ccc(C#N)cc2)c2ccc(Cl)cc12)C(=O)NC1CC1 [Example 446] | 168 | –
CC(C)(C)[C@H](NC(=O)c1nn(Cc2ccc(C#N)cc2)c2ccc(Cl)cc12)C(=O)NCCO [Example 447] | 170 | –

Structure (SMILES) | Ki (CB1 Ki) [nM] | Ki (read-out: CB1 Ki) [nM]
CC(C)(C)[C@H](NC(=O)c1nn(Cc2ccc(C#N)cc2)c2ccc(Cl)cc12)C(=O)NC(CO)CO [Example 448] | > 400 | –
CC(C)(C)[C@H](NC(=O)c1nn(Cc2ccc(C#N)cc2)c2ccc(Cl)cc12)C(=O)NC1CCC1 [Example 449] | > 400 | –
CC(C)NC(=O)[C@@H](NC(=O)c1nn(Cc2ccc(C#N)cc2)c2ccc(Cl)cc12)C(C)(C)C [Example 450] | 241 | –
CC(C)(C)[C@H](NC(=O)c1nn(Cc2ccc(C#N)cc2)c2ccc(Cl)cc12)C(=O)NCC1CC1 [Example 451] | > 400 | –
CC(C)(C)[C@H](NC(=O)c1nn(Cc2ccc(C#N)cc2)c2ccccc12)C(=O)N[C@H]1CNC(=O)C1 [Example 452] | > 400 | –
CC(C)(C)[C@H](NC(=O)c1nn(Cc2ccc(C#N)cc2)c2c(F)cccc12)C(=O)N[C@H]1CNC(=O)C1 [Example 453] | > 400 | –
CC(C)(C)[C@H](NC(=O)c1nn(Cc2ccc(C#N)cc2)c2cc(F)ccc12)C(=O)N[C@H]1CNC(=O)C1 [Example 454] | > 400 | –
CC(C)(C)[C@H](NC(=O)c1nn(Cc2ccc(F)cc2)c2ccccc12)C(=O)N[C@H]1CNC(=O)C1 [Example 455] | 33.6 | –
CC(C)(C)[C@H](NC(=O)c1nn(Cc2ccc(C#N)cc2)c2ccccc12)C(=O)N[C@@H]1CNC(=O)C1 [Example 456] | 43.8 | –
CC(C)(C)[C@H](NC(=O)c1nn(Cc2ccc(C#N)cc2)c2cc(F)ccc12)C(=O)N[C@@H]1CNC(=O)C1 [Example 458] | 120 | –
CC(C)(C)[C@H](NC(=O)c1nn(Cc2ccc(F)cc2)c2ccccc12)C(=O)NCc1[nH]nc2c1CCC2 [Example 460] | – | 24.6
CC(C)(C)[C@H](NC(=O)c1nn(Cc2ccc(C#N)cc2)c2ccccc12)C(=O)NCc1nnc(C(=O)NCCO)o1 [Example 461] | – | > 400
CC(C)(C)[C@H](NC(=O)c1nn(Cc2ccc(C#N)cc2)c2cc(F)ccc12)C(=O)NCc1nnc(C(=O)NCCO)o1 [Example 463] | – | 274
CC(C)(C)[C@H](NC(=O)c1nn(Cc2ccc(C#N)cc2)c2c(F)cccc12)C(=O)NCc1nnc(C(=O)NCCO)o1 [Example 464] | – | 58
CC(C)(C)[C@H](NC(=O)c1nn(Cc2ccc(C#N)cc2)c2ccccc12)C(=O)NCCN1CCNC(=O)C1 [Example 465] | – | > 400
CC(C)(C)[C@H](NC(=O)c1nn(Cc2ccc(C#N)cc2F)c2ccccc12)C(=O)NCCN1CCNC(=O)C1 [Example 466] | – | > 400
CC(C)(C)[C@H](NC(=O)c1nn(Cc2ccc(F)cc2)c2ccccc12)C(=O)NCCN1CCNC(=O)C1 [Example 467] | – | 53.8
CC(C)(C)[C@H](NC(=O)c1nn(Cc2ccc(F)cc2F)c2ccccc12)C(=O)NCCN1CCNC(=O)C1 [Example 468] | – | 23.5
CC(C)(C)[C@H](NC(=O)c1nn(Cc2ccc(F)c(F)c2)c2ccccc12)C(=O)NCCN1CCNC(=O)C1 [Example 469] | – | 80.7
CC(C)(C)[C@H](NC(=O)c1nn(Cc2ccc(C#N)cc2F)c2ccccc12)C(=O)NCCC(N)=O [Example 471] | > 400 | –
CC(C)(C)[C@H](NC(=O)c1nn(Cc2ccc(F)cc2)c2c(F)cccc12)C(=O)NCCN1CCNC(=O)C1 [Example 474] | – | 41.2
CC(C)(C)[C@H](NC(=O)c1nn(Cc2ccc(F)cc2)c2ccc(Cl)cc12)C(=O)NCCN1CCNC(=O)C1 [Example 475] | – | 141
CC(C)(C)[C@H](NC(=O)c1nn(Cc2ccc(F)cc2)c2ccc(Cl)cc12)C(=O)NCCC(N)=O [Example 477] | 28.3 | –
Cc1cc(O)nc(NCCNC(=O)[C@@H](NC(=O)c2nn(Cc3ccc(F)cc3)c3ccccc23)C(C)(C)C)n1 [Example 481] | – | 52.6
Cc1cc(O)nc(CCNC(=O)[C@@H](NC(=O)c2nn(Cc3ccc(F)cc3)c3ccccc23)C(C)(C)C)n1 [Example 483] | – | 84
CCOC(=O)c1ccc(Cn2nc(C(=O)N[C@H](C(=O)NCCO)C(C)(C)C)c3ccccc32)c(F)c1 [Example 484] | – | > 400
CC(C)(C)[C@H](NC(=O)c1nn(Cc2ccc(C#N)cc2)c2ccccc12)C(=O)NC[C@H]1C[C@@H]1CO [Example 485] | 152 | –

Source: patent US20110028447A1, “INDAZOLE DERIVATIVES” (Pfizer Inc., priority 2008, published 2011)
